One assay deals with Normal human fibroblasts. Kind of assay: Contraction of collagen lattices by human fibroblasts. In kind it is cell-based. The settings on record: for Diameter of Lattice, Day 1 / Diameter of Lattice, Day 2 / Diameter of Lattice, Day 3 / Diameter of Lattice, Day 4: 10 μg/ml peptide, 1×10^5 fibroblasts/well; for Diameter of Lattice, Day 1: Day 1 of culture; for Diameter of Lattice, Day 2: Day 2 of culture; for Diameter of Lattice, Day 3: Day 3 of culture; for Diameter of Lattice, Day 4: Day 4 of culture. The method, then:
Normal human fibroblasts were purchased from Clonetics (San Diego, Calif.) and were thawed and cultured in Fibroblast Growth Medium (Clonetics) according to the manufacturer's instructions. Once the cells reached confluence in the flask, they were harvested by trypsinization and utilized for the studies described below.
Rat tails were harvested from 200 gram female rats and frozen until use. The frozen rat tails were thawed in 70% (vol/vol) ethanol for 20 minutes. The tendon bundles were excised in 70% ethanol in a vertical laminar flow hood. The individual tendons were pulled out of the tendon sheath, minced, and placed in dilute acetic acid (1:1000) using 250 ml per tail. The mixture was incubated at 4° C. for 48 hours, at which point the minced tendons had swelled to the volume of the dilute acetic acid. The viscous mixture was centrifuged at 23,000 rpm in a Beckman L ultracentrifuge for 1 hour. The supernatant was harvested and further refined. This crude collagen solution was mixed with 0.1M NaOH in a 6:1 ratio to neutralize the acetic acid and precipitate the collagen. The mixture was then centrifuged at 1500 rpm for 5 minutes. The supernatant was discarded and an equal volume of fresh acetic acid (1:1000) was introduced to resolubilize the collagen over 48 hours. This solution was stored at 4° C. as refined collagen. The protein concentration was determined by BCA assay.
The collagen lattices for the assessment of contraction by fibroblasts and angiotensin II were formed in 60 mm Falcon bacteriological dishes. Each dish contained 1 ml 4×DMEM High glucose medium, 1 ml fetal calf serum, 0.25 ml NaOH, 1.5 ml of 500 μg/ml refined collagen and 1 ml of fibroblasts in Fibroblast Growth Medium (7.5×10^4 cells/ml to 7.5×10^5 cells/ml). In these cultures, various concentrations of AII (1 to 10 μg/ml) were added to assess the effect of AII on the formation of an artificial dermis. The cultures were placed in an incubator at 37° C. in an atmosphere of 5% CO2 in air. At various times after culture initiation, the diameter of the formed lattice was measured. As there are slight differences in diameter at various points (ie: the lattices were not always perfectly round), the average of the largest and the smallest diameters were taken.
Similar experiments were conducted using AII analogues and fragments, except that ten μg/ml of each of the peptides shown in Table 3 were added to 1×10^5 of fibroblasts/well. At various times after culture initiation, the diameter of the formed lattice was measured.

In another assay the test system is Human keratinocytes. Kind of assay: Keratinocyte proliferation on Integra artificial dermis. In kind it is cell-based. The settings on record: 10 μg/ml peptide, 1×10^5 cells/ml. The source says:
Integra, a commercially available artificial dermis of chondrotin sulfate and collagen, was obtained (Integra Life Sciences) and used in culture as a matrix for keratinocyte growth. The Integras was washed free of preservative by a sterile saline for injection and cut to size to fit snugly into the bottom of 24 well plates. After trimming, the pieces of Integra were placed silicone-side down into the wells.
Human keratinocytes were purchased from Clonetics and thawed and cultured as described in Example 3, except that they were grown in Keratinocyte Growth Medium, as per the manufacturer's instructions. Once the cells reached confluence in the flask, they were detached from the tissue culture flasks by trypsinization. The cells were resuspended at 1×10^5 cells/ml in Keratinocyte Growth Medium or Keratinocyte Basal Medium with or without 10 μg/ml of various AII-related peptides (AII, AII(1-7), Pro3 AII(1-7), Ala4-AIII, and Pro3-AII; see Table 5 below). One ml of these cell preparations was added to wells of the 24 well plates containing Integra membrane. The cultures were placed in an incubator at 37° C. in an atmosphere of 5% CO2 in air. At various times after initiation of the cultures, the number of keratinocytes on the surface of the Integra membrane in 5 100×fields was assessed under phase contrast microscopy.

The subject of assay [1] is keratinocytes from explants of human skin. Kind of assay: Outgrowth of keratinocytes from explants of human skin on Dermagraft. In kind it is cell-based. The following applies: AII 1 or 10 μg/ml, 7 days. The source says: Human skin explants were obtained from surgery of split thickness skin grafts and cut by scalpel in to 2 mm×2 mm squares. Ten explants per condition were placed dermal side down on frozen and thawed Dermagraft (Advanced Tissue Sciences, San Diego, Calif.) and cultured at the air-liquid interface using Keratinocyte-SFM medium (Gibco BRL, Grand Island, N.Y.) supplemented with epidermal growth factor and bovine pituitary extract according to the manufacturer's instructions. The culture medium contained penicillin (50 U/ml) and streptomycin (50 μg/ml) and extra calcium chloride to a final concentration of 1 mM. Angiotensin II was added to the culture medium at a final concentration of 1 or 10 μg/ml. The cultures were maintained at 37° C. with 5% CO2 and medium with and without AII and the medium was changed twice weekly. After 7 days, the cultures were fixed in formalin for one hour, stained with hematoxylin and washed in tap water. The dermal replacements appeared dark purple except for the area where the keratinocytes exclude the stain. Cultures were photographed using a dissection microscope at a fixed magnification and the area of outgrowth was quantified by gravimetric planimetry.

The test system of assay [2] is living skin equivalent (LSE) epidermis. Kind of assay: Epidermal thickness of living skin equivalent (LSE) presoaked in AII and grafted on nude mice. It is filed as in vivo, Swiss nude mice. The source says:
Twenty three male Swiss nude mice (22-24 grams) were purchased from Taconic Laboratories and quarantined at least two days prior to surgery, and divided into 4 groups of mice. The mice were anesthetized with an intramuscular injection of Ketamine (ketaset; Phoenix Pharmaceuticals, Inc.) and Rompun (xylazine; Phoenix Pharmaceuticals, Inc.) and a 1 cm×1 cm full thickness skin excision was made on their dorsal surface. Each group received an Apligraph LSE (Organogenesis; Canton, Mass.) that had been soaked for 10 minutes in concentrations of AII ranging from 0 to 1.0 mg/ml. The LSE was placed in the defect and trimmed with microscissors so that no gap was observed between the edges of the mouse skin and the LSE. After the graft was placed, the dorsal surface of the mouse was covered by petroleum embedded gauze (Dermacea) followed by two adhesive bandages (Baxter). After recovery from anesthesia, the mice were returned to their individual cages and observed daily until euthenasia. The mice received intramuscular analgesia for the first three days after surgery. No mouse lost their bandage prior to bandage removal on day 7 and day 23. […]
[…] The thickest part of each graft was measured and the thickness of the graft at one-half of a 10×field to each side of the thickest portion was also measured.

The next assay has as its system AT2 receptor. The following applies: cited from earlier work.
The nature of assay [3]: Unspecified test of effectiveness of AII fragments. The settings on record: test not specified.

Entries after “also recorded” stand apart in the source; their conditions may differ. Square brackets hold non-standard residues; d marks the D form. Ends that are not written are not given here. Phe(4-NH2) = Nc1ccc(C[C@H](N)C(=O)O)cc1; Nle = CCCC[C@H](N)C(=O)O; Ac5c = NC1(C(=O)O)CCCC1

--RVYnLHPF (RVY[Nle]HPF) [NorLeu4 AIII]: in the assay with Normal human fibroblasts, the “Diameter of Lattice, Day 1” value is listed as 3.4 cm; the “Diameter of Lattice, Day 2” value amounted to 2.0 cm; the “Diameter of Lattice, Day 3” value is 1.6 cm; the “Diameter of Lattice, Day 4” value turned out to be 1.5 cm.
On to “Asp-Arg-Val-Tyr-Ile-His-Pro (DRVYIHP) [AII(1-7)]”, for which the “proliferation of keratinocytes (number on the surface of the Integra membrane)” value (from here on “proliferation of keratinocytes”) with Human keratinocytes is “increased the proliferation of keratinocytes”. Further, in the assay with Normal human fibroblasts, the “Diameter of Lattice, Day 1” value worked out at 3.4 cm; the “Diameter of Lattice, Day 2” value amounted to 2.4 cm; the “Diameter of Lattice, Day 3” value is 2.0 cm; the “Diameter of Lattice, Day 4” value stood at 1.7 cm.
On to “Asp-Arg-Val-Tyr-Ile-His-Pro-Phe (DRVYIHPF) [AII, known pressor agent, commercially available, reference compound]”, for which the “proliferation of keratinocytes” value in the assay on Human keratinocytes is “increased the proliferation of keratinocytes”. Besides, the “area of the artificial dermis covered with keratinocytes (outgrowth)” value in assay [1] is given as “increased the area of the artificial dermis covered with keratinocytes”. The “vessels attached to underside of graft” value in assay [2] (day 7, one of the AII-treated grafts) is given as “numerous vessels attached to its underside”. Moreover, in assay [2] (day 23 post-grafting, LSE soaked 10 minutes in AII 0 to 1.0 mg/ml), the epidermal thickness result is listed as “increased in a concentration-dependent manner”. Besides, the “affinity for AT2 than AT1” value with AT2 receptor (AT2 versus AT1) was 100 times. Besides, in the assay with Normal human fibroblasts, the “Diameter of Lattice, Day 1” value was 3.3 cm; the “Diameter of Lattice, Day 2” value was 2.4 cm; the “Diameter of Lattice, Day 3” value stood at 1.6 cm; the “Diameter of Lattice, Day 4” value is 1.4 cm. For the same substance, the “contraction of collagen lattices” value in the assay with Normal human fibroblasts (AII 1 to 10 μg/ml, fibroblasts 7.5×10^4 to 7.5×10^5 cells/ml) is reported as “accelerated the contraction of collagen lattices”.
On to “Asp-Arg-Val-Tyr-Ile-Xaa-Pro-Phe (DRVYI[Phe(4-NH2)]PF) [(p-NH2-Phe)6-AII]”, for which the binding characteristics entry with AT2 receptor (experimental models tested, compared with AT2 antagonists) is on record as “comparable to AT2 antagonists”.
For “DR(Acpc)YIHPF (DR[Ac5c]YIHPF) [Acpc3 AII]”, in the assay with Normal human fibroblasts, the “Diameter of Lattice, Day 1” value was 3.5 cm; the “Diameter of Lattice, Day 2” value was 2.0 cm; the “Diameter of Lattice, Day 3” value was 1.6 cm; the “Diameter of Lattice, Day 4” value came out at 1.4 cm.
In the case of DRPYIHP [Pro3 AII(1-7)], in the assay with Human keratinocytes, the “proliferation of keratinocytes” value was “increased the proliferation of keratinocytes”.
As for DRPYIHPF [Pro3-AII], in the assay on Human keratinocytes, the “proliferation of keratinocytes” value is given as “increased the proliferation of keratinocytes”.
As for DRVYIHPI [Ile8 AII], in the assay on Normal human fibroblasts, the “Diameter of Lattice, Day 1” value was 3.4 cm; the “Diameter of Lattice, Day 2” value came to 2.4 cm; the “Diameter of Lattice, Day 3” value is recorded as 1.7 cm; the “Diameter of Lattice, Day 4” value was 1.4 cm.
For GRVYIHPF [Gly1 AII] the same measures were 3.4 cm, 2.2 cm, 1.6 cm and 1.5 cm.
Regarding His-Pro-Phe (HPF) [AII(6-8)], the effectiveness entry in assay [3] was “not to be effective”.
RVYAHPF [Ala4-AIII]: the “proliferation of keratinocytes” value in the assay with Human keratinocytes is “increased the proliferation of keratinocytes”. Besides, in the assay on Normal human fibroblasts, the “Diameter of Lattice, Day 1” value is listed as 3.4 cm; the “Diameter of Lattice, Day 2” value amounted to 2.7 cm; the “Diameter of Lattice, Day 3” value worked out at 1.9 cm; the “Diameter of Lattice, Day 4” value worked out at 1.6 cm.
Regarding Tyr-Ile-His-Pro-Phe (YIHPF) [AII(4-8)], the effectiveness result in assay [3] is recorded as “not to be effective; also recorded: ineffective in repeated tests”.

The values are drawn from patent publication US6498138B1, “Method of promoting production of living tissue equivalents” (University of Southern California, priority 1998, dated 2002).
